Data set [1] deals with mice stomach. It is filed as in vivo. The settings on record: for Average ulcerogenic index (4-point scale) of chronic administration of pharmacological dose: mice, per os 7 days, compound 2 200 mg/kg, indomethacin 20 mg/kg, voltaren 50 mg/kg, aminoguanidine 200 mg/kg; for Ulcerogenic effects of drugs of comparison: mice ulceration models, summary of table 4. On the procedure: (§1) Studies were performed according to the following scheme: • 1. […] Study of the compounds' ulcerogenic action using pharmaceutical dose during 7 days of administration. • 3. Aggravation of ulcerogenic effects of studied compounds by 0.6H hydrochloric acid. • 4. Aggravation of ulcerogenic effects of studied compounds by the known NSAIDs (indomethacin). 1.
(§2) Ulcerogenic effect was assessed using 4-point scale: 0—no damage; 0.5—hyperemia; 1—insignificant damage (1 or 2 small bleedings); 2—multiple damage (erosions, small bleedings); 3—significant and multiple damage (erosions, bleedings); 4—severe damage, affecting all gastric mucosa (massive bleedings, erosions, perforations).
After 7 days the animals were sacrificed by CO2, their stomachs extracted and the number of ulcers counted.
(§3) Drugs of comparison: indomethacin 20 mg/kg, voltaren—50 mg/kg and aminoguanidine—200 mg/kg. Each test group had 10 animals.

Data set [2] concerns constitutive forms of NO-synthase. The settings on record: compared with L-NMMA; cited from earlier work.
Data set [3] has as its system carrageenan-induced peritonitis in mice. Briefly: Carrageenan-induced peritonitis in mice, volume of exudate. It is filed as in vivo. On the procedure:
Research was carried out by a method described in [5]. Experiments were performed using male mice with body mass 23-24 g, in groups of 10 animals. […] The results were processed using variation statistics methods for biological research (mean standard error, means were calculated using Student's t-distribution).

The target in data set [4] is inducible isoenzymes of NO-synthase (Homo sapiens, UniProt P35228). The settings on record: most in vitro systems; cited from earlier work.
The subject of data set [5] is animal models. The settings on record: in vivo; cited from earlier work.
In data set [6] the test system is LPS-induced peritonitis in rats. Briefly: LPS-induced peritonitis in rats, volume of exudate. It is filed as in vivo. To be noted: rats; for ED50: LPS-induced peritonitis, per os. On the procedure: Anti-exudative action was studied in male rate with body mass 170.0-180.0 g. Peritonitis was induced by intraperitoneal administration of lipopolysaccharide (LPS), produced from Escherichia coli (Sigma)—1.0 mg/kg as described in [6]: after 4 hours the animals were sacrificed by CO2, their peritoneal cavity opened and the volume of exudate was measured in ml. Studied compounds and drugs of comparison were administered per os one hour before LPS, control group was composed of rats receiving 0.3 ml of saline before LPS administration. Each group had 7 animals.
(§4) The results were processed using variation statistics methods for biological research (mean standard error, means were calculated using Student's t-distribution).

For data set [7], the system named is mice stomach. Briefly: Aggravation of ulcerogenic effect by indomethacin. The class given is in vivo. The settings on record: mice; compound 2 100 mg/kg, voltaren 50 mg/kg, aminoguanidine 200 mg/kg, 1 hour before indomethacin 20 mg/kg; after 5 hours. As to the method: as §1, §2
(§5) Male mice with body mass 23-24 g were deprived of food for 24 hours, water access was not limited.
Drugs of comparison: voltaren—50 mg/kg and aminoguanidine—200 mg/kg. Each test group had 10 animals.

Data set [8] deals with mice stomach. Briefly: Aggravation of ulcerogenic effects by 0.6H hydrochloric acid. To be noted: compound 2 100 mg/kg, indomethacin 20 mg/kg, voltaren 50 mg/kg, aminoguanidine 200 mg/kg, 1 hour before 0.6H HCl 5 ml/kg, after 4 hours. It is filed as in vivo. On the procedure: as §1, §2, §5, §3
The test system of data set [9] is LPS-induced peritonitis in mice. Nature of the data set: LPS-induced peritonitis in mice, volume of exudate. It is filed as in vivo. On the procedure: Activity was studies using the methods listed in “Methodical recommendations on experimental (preclinical) research of new nonsteroidal anti-inflammatory drugs” for new compounds screening, in animal models of peritonitis induced by lipopolysaccharide (LPS) and carrageenan.
Anti-exudative action was studied in male mice with body mice 22.0-23.0 g. Peritonitis was induced by intraperitoneal administration of lipopolysaccharide (LPS), produced from Escherichia coli (Sigma) 1.0 mg/kg, as described in [6]: after 4 hours the animals were sacrificed by CO2, their peritoneal cavity opened and the volume of exudate was measured in ml. Studied compounds and drugs of comparison were administered per os one hour before LPS, control group was composed of mice receiving 0.3 ml of saline before LPS administration. Each group had 10 animals.
as §4

Molecules are shown by their SMILES. Read-outs that look alike come from different tables or passages of the source. Marks after values point to notes of the source that are not given here.

For `N=C(N)NN` [Aminoguanidine, N-aminoguanidine], the “Average ulcerogenic index (4-point scale) of chronic administration of pharmacological dose” value in data set [1] is 0. In addition, the “Activity towards constitutive forms of NO-synthase” value in data set [2] was “much less active towards constitutive forms”. Also, the “Anti-inflammatory activity in carrageenan-induced peritonitis model, % of control” value is on record as 25.5* % of control in data set [3] (50.0 mg/kg per os), 70.6* % of control in data set [3] (100.0 mg/kg per os) and 84.3* % of control in [3] (200.0 mg/kg per os). Besides, the “Inhibition of inducible isoenzymes of NO-synthase” value in [4] is recorded as “equally effective in inhibiting inducible isoenzymes”. Also, the “Effect in animal models of inflammation, septic shock, endotoxin” value in data set [5] is “reduces the severity of inflammation and septic shock, improves survival during endotoxin administration”. Besides, the “Anti-inflammatory activity in LPS-induced peritonitis model, % of control” value in data set [6] (25.0 mg/kg per os) is recorded as 4.0 % of control; in data set [6] (50.0 mg/kg per os), 22.0* % of control; in data set [6] (75.0 mg/kg per os), 58.0* % of control; in [6] (100.0 mg/kg per os) it was 78.0* % of control; in data set [6] (200.0 mg/kg per os), 100.0* % of control; in data set [9] (50.0 mg/kg per os) it was 51.1* % of control. Besides, the “Anti-inflammatory activity in LPS-induced peritonitis model, % of control” value in data set [9] (100.0 mg/kg per os) is listed as 73.3* % of control; in data set [9] (200.0 mg/kg per os), 91.1* % of control. Also, the ED50 in data set [6] is 70.0 ± 2.5 mg/kg. In addition, the “Average ulcerogenic index (4-point scale) of combining the studied compounds with indomethacin” value in data set [7] was 0.19. Besides, the “Average ulcerogenic index (4-point scale) of combining the studied compounds with hydrochloric acid” value in [8] worked out at 0.15.

With `COc1ccc2c(c1)c(CC(=O)O)c(C)n2C(=O)c1ccc(Cl)cc1` [Indomethacin, indomethacin], in data set [1], the “Ulcerogenic effects of drugs of comparison” value is given as “had ulcerogenic effects” and the “Average ulcerogenic index (4-point scale) of chronic administration of pharmacological dose” value amounted to 1.15. Besides, in data set [8], the “Average ulcerogenic index (4-point scale) of combining the studied compounds with hydrochloric acid” value is 2.4.

For the compound `O=C(O)Cc1ccccc1Nc1c(Cl)cccc1Cl` [Voltaren, sodium diclofenac], the “Ulcerogenic effects of drugs of comparison” value in data set [1] is “had ulcerogenic effects”. Moreover, the “Average ulcerogenic index (4-point scale) of chronic administration of pharmacological dose” value in data set [1] is given as 0.35. Also, the “Anti-inflammatory activity in carrageenan-induced peritonitis model, % of control” value in [3] (25.0 mg/kg per os) is recorded as 80.4* % of control; in data set [3] (50.0 mg/kg per os), 90.2* % of control; in data set [3] (100.0 mg/kg per os), 100.0* % of control. In data set [6] (Rattus norvegicus, po, read-out: ED50), the ED50 stood at 20 ± 1.5 mg/kg. Further, the “Anti-inflammatory activity in LPS-induced peritonitis model, % of control” value in [6] (10.0 mg/kg per os) is 22.0 % of control; in data set [6] (25.0 mg/kg per os), 65.0* % of control; in data set [6] (50.0 mg/kg per os) it was 84.0* % of control; in data set [6] (75.0 mg/kg per os), 100.0* % of control; in data set [9] (25.0 mg/kg per os), 82.2* % of control; in data set [9] (50.0 mg/kg per os), 95.6* % of control. Also, the “Anti-inflammatory activity in LPS-induced peritonitis model, % of control” value in data set [9] (100.0 mg/kg per os) is 100.0* % of control. Besides, the “Average ulcerogenic index (4-point scale) of combining the studied compounds with indomethacin” value in [7] amounted to 2.5. Moreover, the “Average ulcerogenic index (4-point scale) of combining the studied compounds with hydrochloric acid” value in [8] was found to be 0.55.

These data come from patent publication US8642784B2, “Biologically active compound N-[3-(4-nitrophenylamino)-indole-2-ilmethylene]aminoguanidine hydrochloride with anti-inflammatory activity” (priority 2010, dated 2014).
